{
  "source": "patent US9096528B2",
  "about": "“2-aminonicotinic acid ester derivative and bactericide containing same as active ingredient” (AGRO-KANESHO CO., LTD., priority 2012, dated 2015)",
  "tested_on": "Botrytis cinerea",
  "assay": "Test on Botrytis cinerea (gray mold) of a cucumber",
  "assay_type": "in vivo",
  "settings": "25 ppm; cut cucumber cotyledons inoculated with spore suspension; 20° C. for 72 hours; from lesion diameter vs non-treatment region",
  "method": "A cucumber plant (a plant variety: “Sagami Han-shiro”) of 12 days after seeding was prepared for the test. Parts of cotyledons of the cucumber plant were cut out with leaving about 2 cm of its rachis. Apart from this, a plastic case with a size of 32 cm×24 cm×4.5 cm (length×width×height), at the bottom of which a paper towel sufficiently moistened with water was laid, and on the paper towel a mesh with legs was placed, was prepared. On the mesh, the above-described cut-out parts of cotyledons were placed such that leaves were horizontal. To the central part of each of the cotyledons, 50 μl of a spore suspension (1×10^6 spores/ml) of Botrytis cinerea of a cucumber was added dropwise. Thereafter, each of cotyledons was covered with a paper disc with a diameter of 6 mm. Apart from this, an emulsion prepared according to the above Preparation Example 1 was diluted with an aqueous solution of 0.02% Tween 20 in demineralized water to prepare a diluent of a predetermined concentration. 50 μl of the diluent was dropped on each paper disc. The plastic case was lidded and was placed under the condition of 20° C. for 72 hours, and then the diameter of each lesion was measured and the controlling rate for Botrytis cinerea (gray mold) of a cucumber was calculated according to the following equation. […]",
  "data": [
    {"smiles": "CCOc1cccc(Oc2ccc(CNC(=O)c3cccnc3N)cc2)c1", "note": "[A]", "values": [
      {"measurement": "Controlling rate (%)", "result": 54, "unit": "%"}
    ]}
  ]
}
